What all share (assay type): biochemical
The target of experiment [1] is T1, WT EZH2 (Homo sapiens (Human), UniProt Q15910). Put plainly: WT EZH2 nucleosome assay. The settings on record: PRC2 4-protein complex 4 nM, 1.5 μM SAM, HeLa oligonucleosomes. How it is done: The genes for EZH2, EED, SUZ12, and RBBP4 proteins were cloned into pBacPAK9 vectors (Clontech). RBBP4 was FLAG tagged on the N-terminal end. The baculovirus expressions of these proteins were used to co-infect SF9 insect cells. Insect cell pellets were lysed in a buffer containing 25 mM Tris pH8.0, 300 mM NaCl, 0.5 mM TCEP, complete EDTA-free protease inhibitor (Roche), 0.1% NP-40. The supernatant from the lysate was incubated with FLAG® M2 antibody resin (Sigma). The resin was washed on the chromatography column and eluted with 0.2 mg/ml FLAG peptide. The elute was incubated with omnicleave nucleases (Epicentre Technologies) at 4° C. overnight, then concentrated and loaded onto a Superdex 200 (GE Healthcare) column. The Superdex 200 column was eluted with 25 mM Tris pH8.0, 150 mM NaCl, 0.5 mM TCEP. Fractions containing the PRC2 complex were pooled.
T1 sequence (Q15910 whole entry, looked up): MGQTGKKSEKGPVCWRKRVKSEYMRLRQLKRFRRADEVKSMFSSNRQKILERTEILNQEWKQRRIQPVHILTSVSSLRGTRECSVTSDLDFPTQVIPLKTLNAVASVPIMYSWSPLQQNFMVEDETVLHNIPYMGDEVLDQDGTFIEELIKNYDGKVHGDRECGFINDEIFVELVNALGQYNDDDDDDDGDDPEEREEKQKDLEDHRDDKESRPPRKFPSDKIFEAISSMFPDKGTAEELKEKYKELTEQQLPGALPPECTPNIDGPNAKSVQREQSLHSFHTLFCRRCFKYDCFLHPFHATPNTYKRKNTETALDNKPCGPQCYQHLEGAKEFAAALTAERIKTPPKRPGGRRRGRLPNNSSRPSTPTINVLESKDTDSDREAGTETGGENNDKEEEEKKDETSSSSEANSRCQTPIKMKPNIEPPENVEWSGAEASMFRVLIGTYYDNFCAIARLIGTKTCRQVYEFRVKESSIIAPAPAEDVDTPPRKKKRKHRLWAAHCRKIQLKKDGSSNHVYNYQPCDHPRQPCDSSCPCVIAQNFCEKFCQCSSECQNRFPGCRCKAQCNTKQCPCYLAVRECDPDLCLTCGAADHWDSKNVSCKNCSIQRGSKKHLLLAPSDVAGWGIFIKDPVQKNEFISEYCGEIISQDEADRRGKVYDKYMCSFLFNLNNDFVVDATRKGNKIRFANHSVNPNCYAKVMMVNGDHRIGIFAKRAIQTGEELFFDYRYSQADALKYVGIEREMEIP
T1 sequence (O75530 whole entry partner, looked up): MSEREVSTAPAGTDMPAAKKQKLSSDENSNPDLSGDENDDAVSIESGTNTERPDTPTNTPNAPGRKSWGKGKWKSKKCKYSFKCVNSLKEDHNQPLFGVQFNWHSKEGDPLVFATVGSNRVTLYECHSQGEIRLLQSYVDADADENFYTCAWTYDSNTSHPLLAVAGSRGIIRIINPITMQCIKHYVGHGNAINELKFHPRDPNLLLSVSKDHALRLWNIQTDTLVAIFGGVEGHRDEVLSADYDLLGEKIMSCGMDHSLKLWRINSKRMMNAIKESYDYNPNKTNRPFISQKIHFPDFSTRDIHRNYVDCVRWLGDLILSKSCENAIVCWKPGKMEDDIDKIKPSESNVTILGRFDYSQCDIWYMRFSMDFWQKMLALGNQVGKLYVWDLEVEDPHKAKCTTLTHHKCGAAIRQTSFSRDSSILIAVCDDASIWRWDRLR
T1 sequence (Q15022 whole entry partner, looked up): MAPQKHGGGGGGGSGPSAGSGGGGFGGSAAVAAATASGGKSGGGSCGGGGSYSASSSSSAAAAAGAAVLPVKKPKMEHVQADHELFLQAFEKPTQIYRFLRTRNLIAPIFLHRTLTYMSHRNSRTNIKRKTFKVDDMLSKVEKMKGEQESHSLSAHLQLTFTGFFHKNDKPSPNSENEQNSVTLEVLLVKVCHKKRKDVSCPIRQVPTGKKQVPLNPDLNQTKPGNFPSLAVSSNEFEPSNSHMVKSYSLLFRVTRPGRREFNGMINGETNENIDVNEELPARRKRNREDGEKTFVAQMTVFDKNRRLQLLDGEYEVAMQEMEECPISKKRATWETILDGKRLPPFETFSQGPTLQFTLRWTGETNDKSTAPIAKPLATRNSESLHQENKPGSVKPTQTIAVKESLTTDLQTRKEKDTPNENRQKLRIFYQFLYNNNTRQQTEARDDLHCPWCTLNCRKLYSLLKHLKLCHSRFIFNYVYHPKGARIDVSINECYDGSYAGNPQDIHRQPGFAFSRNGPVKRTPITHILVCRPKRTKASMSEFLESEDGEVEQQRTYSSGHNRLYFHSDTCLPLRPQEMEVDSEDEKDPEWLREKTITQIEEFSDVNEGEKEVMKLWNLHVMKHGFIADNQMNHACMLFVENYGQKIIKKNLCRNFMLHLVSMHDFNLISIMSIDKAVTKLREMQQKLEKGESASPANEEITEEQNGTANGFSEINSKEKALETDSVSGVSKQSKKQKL
T1 sequence (Q09028 whole entry partner, looked up): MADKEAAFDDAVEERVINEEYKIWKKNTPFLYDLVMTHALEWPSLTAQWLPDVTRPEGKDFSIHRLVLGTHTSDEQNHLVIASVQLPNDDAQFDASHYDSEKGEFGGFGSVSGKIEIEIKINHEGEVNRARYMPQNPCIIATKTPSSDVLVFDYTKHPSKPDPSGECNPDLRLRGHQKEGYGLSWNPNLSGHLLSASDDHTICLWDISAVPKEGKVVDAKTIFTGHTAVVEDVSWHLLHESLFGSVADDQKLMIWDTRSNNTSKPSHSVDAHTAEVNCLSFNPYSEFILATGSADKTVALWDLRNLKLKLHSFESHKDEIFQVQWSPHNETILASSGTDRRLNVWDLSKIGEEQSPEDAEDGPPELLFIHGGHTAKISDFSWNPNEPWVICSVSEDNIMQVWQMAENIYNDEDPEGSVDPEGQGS
A. Compound preparation • 1.
B. Reagent preparation • 1. […] Dilute TCA to 20% in DI water
C. Enzyme reaction • 1. […] Some compounds were tested under high SAM conditions.
D. Data analysis • 1. IC50 values were determined by fitting the data to a 4-parameter IC50 equation using proprietary curve fitting software. • 2. For compounds tested under high SAM conditions, Ki^app values were obtained by fitting the dose response curve to a model for competitive inhibition using proprietary curve fitting software. Preparation of HeLa Oligonucleosomes: Reagents • Cell Pellet: 15 L HeLa S3 (Accelgen)+6 L HeLa S3 (in house) • Mnase (Worthington Biochemicals) Equipment • SW-28 Rotor • Dounce Homogenizer/B Pestle Buffers • Lysis: 20 mM Hepes pH 7.5, 0.25M Sucrose, 3 mM MgCl2, 0.5% Nonidet P-40, 0.5 mM TCEP, 1 Roche Protease Tablet • B: 20 mM Hepes pH7.5, 3 mM MgCl2, 0.5 mM EDTA, 0.5 mM TCEP, 1 Roche Protease Tablet • MSB: 20 mM Hepes pH7.5, 0.4 M NaCl, 1 mM EDTA, 5% v/v Glycerol, 0.5 mM TCEP, 0.2 mM PMSF • LSB: 20 mM Hepes pH7.5, 0.1M NaCl, 1 mM EDTA, 0.5 mM TCEP, 0.2 mM PMSF • NG: 20 mM Hepes pH7.5, 1 mM EDTA, 0.4 m NaCl, 0.2 mM PMSF, 0.5 mM TCEP • Storage: 20 mM Hepes pH7.5, 1 mM EDTA, 10% Glycerol, 0.2 mM PMSF, 0.5 mM TCEP Protocol

Another experiment deals with EZH2 Mutant Y641N (Homo sapiens (Human), UniProt Q15910, Y641N). Description: EZH2 Mutant Y641N nucleosome assay. Particulars: PRC2 4-protein complex 6 nM, 1.5 μM SAM, HeLa oligonucleosomes.
Sequence of EZH2 Mutant Y641N (Q15910 whole entry Y641N, looked up): as the sequence (Q15910 whole entry, looked up) above, with Y641N counted along it
Sequence of EZH2 Mutant Y641N (O75530 whole entry partner, looked up): as the sequence (O75530 whole entry partner, looked up) above
Sequence of EZH2 Mutant Y641N (Q15022 whole entry partner, looked up): as the sequence (Q15022 whole entry partner, looked up) above
Sequence of EZH2 Mutant Y641N (Q09028 whole entry partner, looked up): as the sequence (Q09028 whole entry partner, looked up) above
The target in experiment [2] is T1, WT EZH2. Put plainly: WT EZH2 nucleosome assay (10X SAM, high SAM conditions). Particulars: 15 uM SAM, Ki app from competitive inhibition fit, read-out: WT EZH2 Nucleosome assay (10X SAM) Ki.
The mark [3] stands for this setting: WT EZH2 Nucleosome assay IC50 (μM).
The mark [4] stands for this setting: EZH2 Mutant Y641N Nucleosome assay IC50 (μM).
The mark [5] stands for this setting: read-out: WT EZH2 Nucleosome assay IC50.
The mark [6] stands for this setting: read-out: EZH2 Mutant Y641N Nucleosome assay IC50.

Consider 28 compounds from patent publication US10570121B2, “Substituted dihydroisoquinolinone compounds” (priority 2014, dated 2020).

Where two headings read alike, the source gives them in different places.

By IC50 is commonly meant the concentration that gives 50% inhibition.

Turning to `CCC(CO)c1cc(Cl)c2c(c1Cl)C(=O)N(Cc1c(C)cc(C)[nH]c1=O)CC2` (single isomer, unassigned) [Example 29], the IC50 came to 0.017 µM against WT EZH2 [1] (setting [3]) and 0.107 µM on EZH2 Mutant Y641N (setting [4]).

As to `Cc1cc(C)c(CN2CCc3c(Cl)cc(C(C)CN(C)CCO)c(Cl)c3C2=O)c(=O)[nH]1` (racemic) [Example 21], the IC50 on WT EZH2 [1] (setting [5]) amounted to 0.015 µM; at EZH2 Mutant Y641N (setting [6]), 0.109 µM.

`CCC(O)c1cc(Cl)c2c(c1Cl)C(=O)N(Cc1c(C)cc(C)[nH]c1=O)CC2` (racemic) [Example 25]: the IC50 against WT EZH2 [1] (setting [3]) came to 0.084 µM; on EZH2 Mutant Y641N (setting [4]) it was 0.693 µM.

With `CCC(O)c1cc(Cl)c2c(c1Cl)C(=O)N(Cc1c(C)cc(C)[nH]c1=O)CC2` (single isomer, unassigned) [Example 27], the figures for the IC50 at WT EZH2 [1] (setting [3]) and against EZH2 Mutant Y641N (setting [4]) were 0.037 µM and 0.3 µM, respectively.

Turning to `Cc1cc(C)c(CN2CCc3c(Cl)cc(C(C)CCO)c(Cl)c3C2=O)c(=O)[nH]1` (single isomer, unassigned) [Example 40], the IC50 at WT EZH2 [1] (setting [5]) is 0.006 µM; on EZH2 Mutant Y641N (setting [6]), 0.024 µM.

As to `Cc1cc(C)c(CN2CCc3c(Cl)cc([C@H](C)CO)c(Cl)c3C2=O)c(=O)[nH]1` [Example 18], the IC50 at WT EZH2 [1] (setting [5]) was found to be 0.126 µM; on EZH2 Mutant Y641N (setting [6]) it was 0.995 µM. Besides, the Ki on WT EZH2 [2] was 0.115 µM.

In the case of `CCC(CO)c1cc(Cl)c2c(c1Cl)C(=O)N(Cc1c(C)cc(C)[nH]c1=O)CC2` (single isomer, unassigned) [Example 30], the IC50 at WT EZH2 [1] (setting [3]) turned out to be 0.004 µM; against EZH2 Mutant Y641N (setting [4]), 0.02 µM.

`Cc1cc(C)c(CN2CCc3c(Cl)cc(C(CO)C4CCOCC4)c(Cl)c3C2=O)c(=O)[nH]1` (racemic) [Example 31]: the IC50 on WT EZH2 [1] (setting [3]) came out at 0.004 µM; against EZH2 Mutant Y641N (setting [4]), 0.006 µM.

Turning to `COC(c1cc(Cl)c2c(c1Cl)C(=O)N(Cc1c(C)cc(C)[nH]c1=O)CC2)C1CCN(C(=O)CO)CC1` (single isomer, unassigned) [Example 35, 5,8-dichloro-2-[(4,6-dimethyl-2-oxo-1,2-dihydropyridin-3-yl)methyl]-7-{[1-(hydroxyacetyl)piperidin-4-yl](methoxy)methyl}-3,4-dihydroisoquinolin-1(2H)-one], the IC50 at WT EZH2 [1] (setting [3]) and at EZH2 Mutant Y641N (setting [4]) was 0.002 µM in each case.

Regarding `Cc1cc(C)c(CN2CCc3c(Cl)cc([C@H](CO)[C@@H]4CCOC4)c(Cl)c3C2=O)c(=O)[nH]1` (single isomer, unassigned) [Example 2, 5,8-dichloro-2-[(4,6-dimethyl-2-oxo-1,2-dihydropyridin-3-yl)methyl]-7-{(1R*)-2-hydroxy-1-[(3S*)-tetrahydrofuran-3-yl]ethyl}-3,4-dihydroisoquinolin-1(2H)-one], the results for the IC50 against WT EZH2 [1] (setting [3]) and at EZH2 Mutant Y641N (setting [4]) were 0.002 µM and 0.004 µM, respectively.

Regarding `Cc1cc(C)c(CN2CCc3c(Cl)cc(C(C)CO)c(Cl)c3C2=O)c(=O)[nH]1` (racemic) [Example 17], the IC50 against WT EZH2 [1] (setting [3]) stood at 0.035 µM; against EZH2 Mutant Y641N (setting [4]), 0.125 µM.

Turning to `Cc1cc(C)c(CN2CCc3c(Cl)cc(CC(=O)O)c(Cl)c3C2=O)c(=O)[nH]1` [Example 22], the IC50 turned out to be 7.82 µM on WT EZH2 [1] (setting [5]) and 95.2 µM on EZH2 Mutant Y641N (setting [6]).

On to `Cc1cc(C)c(CN2CCc3c(Cl)cc([C@@H](C)CO)c(Cl)c3C2=O)c(=O)[nH]1` [Example 19], for which the IC50 on WT EZH2 [1] (setting [5]) stood at 0.013 µM; on EZH2 Mutant Y641N (setting [6]) it was 0.132 µM. Besides, on WT EZH2 [2], the Ki came to 0.01 µM.

On to `COC(CO)c1cc(Cl)c2c(c1Cl)C(=O)N(Cc1c(C)cc(C)[nH]c1=O)CC2` (single isomer, unassigned) [Example 11, 5,8-dichloro-2-[(4,6-dimethyl-2-oxo-1,2-dihydropyridin-3-yl)methyl]-7-(2-hydroxy-1-methoxyethyl)-3,4-dihydroisoquinolin-1(2H)-one], for which the IC50 at WT EZH2 [1] (setting [5]) amounted to 0.038 µM; at EZH2 Mutant Y641N (setting [6]) it was 0.174 µM.

With `Cc1cc(C)c(CN2CCc3c(Cl)cc(C(C)CCO)c(Cl)c3C2=O)c(=O)[nH]1` (single isomer, unassigned) [Example 39], the IC50 on WT EZH2 [1] (setting [5]) is 0.04 µM; on EZH2 Mutant Y641N (setting [6]), 0.242 µM.

For the compound `Cc1cc(C)c(CN2CCc3c(Cl)cc(C(C)CCO)c(Cl)c3C2=O)c(=O)[nH]1` (racemic) [Example 33], the figures for the IC50 on WT EZH2 [1] (setting [5]) and at EZH2 Mutant Y641N (setting [6]) were 0.012 µM and 0.07 µM, respectively.

Consider `Cc1cc(C)c(CN2CCc3c(Cl)cc(C(CO)C4CCOCC4)c(Cl)c3C2=O)c(=O)[nH]1` (single isomer, unassigned) [Example 38], for which the IC50 is 0.378 µM on WT EZH2 [1] (setting [3]) and 0.74 µM against EZH2 Mutant Y641N (setting [4]).

Consider `Cc1cc(C)c(CN2CCc3c(Cl)cc(CC4CCN(C(=O)CO)CC4)c(Cl)c3C2=O)c(=O)[nH]1` [Example 23], for which the IC50 is 0.009 µM on WT EZH2 [1] (setting [5]) and 0.067 µM at EZH2 Mutant Y641N (setting [6]).

On to `Cc1cc(C)c(CN2CCc3c(Cl)cc(C(C)C#N)c(Cl)c3C2=O)c(=O)[nH]1` (racemic) [Example 32], for which the IC50 came out at 0.093 µM at WT EZH2 [1] (setting [5]) and 1.13 µM at EZH2 Mutant Y641N (setting [6]).

With `CCC(CO)c1cc(Cl)c2c(c1Cl)C(=O)N(Cc1c(C)cc(C)[nH]c1=O)CC2` (racemic) [Example 20], the IC50 on WT EZH2 [1] (setting [3]) stood at 0.011 µM; against EZH2 Mutant Y641N (setting [4]) it was 0.053 µM.

`CCC(O)c1cc(Cl)c2c(c1Cl)C(=O)N(Cc1c(C)cc(C)[nH]c1=O)CC2` (single isomer, unassigned) [Example 28]: the IC50 against WT EZH2 [1] (setting [3]) amounted to 0.126 µM; against EZH2 Mutant Y641N (setting [4]), 1.89 µM.

At WT EZH2 [1] (setting [3]), `Cc1cc(C)c(CN2CCc3c(Cl)cc([C@@H](CO)[C@H]4CCOC4)c(Cl)c3C2=O)c(=O)[nH]1` (single isomer, unassigned) [Example 3, 5,8-dichloro-2-[(4,6-dimethyl-2-oxo-1,2-dihydropyridin-3-yl)methyl]-7-{(1S*)-2-hydroxy-1-[(3R*)-tetrahydrofuran-3-yl]ethyl}-3,4-dihydroisoquinolin-1(2H)-one] came in with an IC50 of 0.066 µM.

Take `COC(CO)c1cc(Cl)c2c(c1Cl)C(=O)N(Cc1c(C)cc(C)[nH]c1=O)CC2` (single isomer, unassigned) [Example 10, 5,8-dichloro-2-[(4,6-dimethyl-2-oxo-1,2-dihydropyridin-3-yl)methyl]-7-(2-hydroxy-1-methoxyethyl)-3,4-dihydroisoquinolin-1(2H)-one]: the IC50 turned out to be 0.326 µM on WT EZH2 [1] (setting [5]) and 1.98 µM on EZH2 Mutant Y641N (setting [6]).

Consider `Cc1cc(C)c(CN2CCc3c(Cl)cc(C(C)C4CCN(C(=O)CO)CC4)c(Cl)c3C2=O)c(=O)[nH]1` (racemic) [Example 24], for which the IC50 was determined as 0.004 µM at WT EZH2 [1] (setting [5]) and 0.008 µM on EZH2 Mutant Y641N (setting [6]).

Take `Cc1cc(C)c(CN2CCc3c(Cl)cc(C([C@H](C)O)[C@@H](C)O)c(Cl)c3C2=O)c(=O)[nH]1` (single isomer, unassigned) [Example 42]: the IC50 on WT EZH2 [1] (setting [5]) was 0.012 µM; at EZH2 Mutant Y641N (setting [6]), 0.102 µM.

For the compound `Cc1cc(C)c(CN2CCc3c(Cl)cc([C@H](CO)[C@H]4CCOC4)c(Cl)c3C2=O)c(=O)[nH]1` [Example 1, 5,8-dichloro-2-[(4,6-dimethyl-2-oxo-1,2-dihydropyridin-3-yl)methyl]-7-{(1R)-2-hydroxy-1-[(3R)-tetrahydrofuran-3-yl]ethyl}-3,4-dihydroisoquinolin-1(2H)-one], the IC50 at WT EZH2 [1] (setting [5]) came to 0.001 µM; at EZH2 Mutant Y641N (setting [6]), 0.003 µM.

With `Cc1cc(C)c(CN2CCc3c(Cl)cc(C(CO)C4CCOCC4)c(Cl)c3C2=O)c(=O)[nH]1` (single isomer, unassigned) [Example 37], the IC50 against WT EZH2 [1] (setting [3]) stood at 0.001 µM; against EZH2 Mutant Y641N (setting [4]), 0.002 µM.

Turning to `Cc1cc(C)c(CN2CCc3c(Cl)cc(C(C)C)c(Cl)c3C2=O)c(=O)[nH]1` [Example 14, 5,8-dichloro-2-[(4,6-dimethyl-2-oxo-1,2-dihydropyridin-3-yl)methyl]-7-(propan-2-yl)-3,4-dihydroisoquinolin-1(2H)-one], the IC50 at WT EZH2 [1] (setting [5]) is 0.008 µM; on EZH2 Mutant Y641N (setting [6]) it was 0.04 µM.
